Results taken from BindingDB's records for doi:10.1021/acs.jmedchem.9b00186 (Bristol-Myers Squibb Research & Development, 2019).

Legend:
[1] = Antagonist activity at PAR4 in human washed platelets assessed as inhibition of gamma-thrombin-induced platelet aggregation preincubated for 5 mins followed by gamma-thrombin addition and measured every 50 secs for up to 15 mins starting from 10 secs post gamma-thrombin addition in presence of recombinant hirudin
[2] = Antagonist activity at PAR4 in human platelet rich plasma assessed as inhibition of gamma-thrombin-induced platelet aggregation preincubated for 5 mins followed by gamma-thrombin addition and measured in presence of recombinant hirudin

| SMILES | IC50 [1] | IC50 [2] |
| --- | --- | --- |
| COc1nn2cc(-c3cc4ccccc4o3)nc2s1 | 240 nM | 15000 nM |
| COc1cc(OCc2ccccc2OCc2ccccc2)c2cc(-c3cn4nc(OC)sc4n3)oc2c1 |  | 2500 nM |
| COc1cc(OCc2cccc(O)c2)c2cc(-c3cn4nc(OC)sc4n3)oc2c1 |  | 2700 nM |
| COc1cc(OCc2cccc(C#N)c2)c2cc(-c3cn4nc(OC)sc4n3)oc2c1 |  | 820 nM |
| COc1cc(OCCOCc2ccccc2)c2cc(-c3cn4nc(OC)sc4n3)oc2c1 |  | 500 nM |
| COc1cc(OCc2ccc(Cl)cc2)c2cc(-c3cn4nc(OC)sc4n3)oc2c1 |  | > 1000 nM |
| COc1cc(OCc2cccc(Cl)c2)c2cc(-c3cn4nc(OC)sc4n3)oc2c1 |  | 680 nM |
| CC(C)Oc1nn2cc(-c3cc4ccccc4o3)nc2s1 | > 30000 nM |  |
| CS(=O)(=O)c1nn2cc(-c3cc4ccccc4o3)nc2s1 | > 30000 nM |  |
| COc1cc(OCc2ccc(OCc3ccccc3)cc2)c2cc(-c3cn4nc(OC)sc4n3)oc2c1 |  | 550 nM |
| COc1cc(OCCc2ccccc2)c2cc(-c3cn4nc(OC)sc4n3)oc2c1 |  | 780 nM |
| COc1cc(OCc2ccccc2C)c2cc(-c3cn4nc(OC)sc4n3)oc2c1 |  | 3600 nM |
| COc1cc(OCc2ccccc2Cl)c2cc(-c3cn4nc(OC)sc4n3)oc2c1 |  | > 3000 nM |
| COc1cc(OCc2cccc(C(F)(F)F)c2)c2cc(-c3cn4nc(OC)sc4n3)oc2c1 |  | 440 nM |
| COc1cc(OCc2ccc(C(F)(F)F)cc2)c2cc(-c3cn4nc(OC)sc4n3)oc2c1 |  | 1800 nM |
| COc1ccc(COc2cc(OC)cc3oc(-c4cn5nc(OC)sc5n4)cc23)cc1 |  | > 3000 nM |
| COc1cc(OCc2cccc(Oc3ccccc3)c2)c2cc(-c3cn4nc(OC)sc4n3)oc2c1 |  | 390 nM |
| COc1cc(OCc2cccc(CCc3ccccc3)c2)c2cc(-c3cn4nc(OC)sc4n3)oc2c1 |  | 1200 nM |
| COc1cc(OCc2cccc(COc3ccccc3)c2)c2cc(-c3cn4nc(OC)sc4n3)oc2c1 |  | 600 nM |
| COc1cc(OCc2cccc(CO)c2)c2cc(-c3cn4nc(OC)sc4n3)oc2c1 |  | > 1000 nM |

| SMILES | IC50 [1] | IC50 [2] |
| --- | --- | --- |
| COc1cccc(COc2cc(OC)cc3oc(-c4cn5nc(OC)sc5n4)cc23)c1 |  | > 1000 nM |
| COc1cc(OCc2ccccc2OC)c2cc(-c3cn4nc(OC)sc4n3)oc2c1 |  | > 1000 nM |
| COc1cc(OCCOc2ccccc2)c2cc(-c3cn4nc(OC)sc4n3)oc2c1 |  | 480 nM |
| COc1cc(OCc2cccc(Sc3ccccc3)c2)c2cc(-c3cn4nc(OC)sc4n3)oc2c1 |  | 410 nM |
| CCOc1nn2cc(-c3cc4ccccc4o3)nc2s1 | 2100 nM |  |
| COc1cc(OCc2ccccc2C(F)(F)F)c2cc(-c3cn4nc(OC)sc4n3)oc2c1 |  | > 1000 nM |
| CSc1nn2cc(-c3cc4ccccc4o3)nc2s1 [US9862730, Example 1] | 270 nM |  |
| COc1nn2cc(-c3cc4cccc(OC)c4o3)nc2s1 [US9862730, Example 9] | 240 nM | 3500 nM |
| COc1nn2cc(-c3cc4ccc(OC)c(OC)c4o3)nc2s1 [US9862730, Example 10] | > 30000 nM | > 30000 nM |
| COc1nn2cc(-c3cc4c(OC)cccc4o3)nc2s1 [US9862730, Example 11] | 350 nM | 1300 nM |
| Cc1nn2cc(-c3cc4ccccc4o3)nc2s1 [US9862730, Example 41] | > 30000 nM |  |
| CCc1nn2cc(-c3cc4ccccc4o3)nc2s1 [US9862730, Example 47] | 2400 nM |  |
| c1ccc2oc(-c3cn4nc(C5CC5)sc4n3)cc2c1 [US9862730, Example 63] | > 30000 nM |  |
| CNc1nn2cc(-c3cc4ccccc4o3)nc2s1 [US9862730, Example 69] | > 30000 nM |  |
| COc1ccc2cc(-c3cn4nc(OC)sc4n3)oc2c1 [US9862730, Example 71] | 120 nM | 480 nM |
| COc1cc(OC)c2cc(-c3cn4nc(OC)sc4n3)oc2c1 [US9862730, Example 73] | 74 nM | 530 nM |
| COc1ccc2oc(-c3cn4nc(OC)sc4n3)cc2c1 [US9862730, Example 93] | > 30000 nM | > 30000 nM |
| COc1nn2cc(-c3cc4c(OC)ccc(OC)c4o3)nc2s1 [US9862730, Example 103] | 2100 nM | 10000 nM |
| COc1nn2cc(-c3cc4ccc(OCc5ccccc5)cc4o3)nc2s1 [US9862730, Example 104] | 1800 nM | > 30000 nM |
| COc1nn2cc(-c3cc4c(OCc5ccccc5)cccc4o3)nc2s1 [US9862730, Example 210] | 3100 nM | 4100 nM |
